Measurements published in US20110236461A1, “METHODS FOR STIMULATING CHONDROGENESIS UTILIZING A POTASSIUM CHANNEL INHIBITOR” (priority 2008, published 2011).

B1: BMP4: bone morphogenetic protein-4 (protein, UniProt P12644 293-408, looked up)
Bone morphogenetic protein 4: SPKHHSQRARKKNKNCRRHSLYVDFSDVGWNDWIVAPPGYQAFYCHGDCPFPLADHLNSTNHAIVQTLVNSVNSSIPKACCVPTELSAISMLYLDEYDKVVLKNYQEMVVEGCGCR

What was measured:
[1] = system: pGL3(4×48) reporter gene (Sox5/6/9 binding sites); test: PLM transfection assay, pGL3(4×48) luciferase reporter; format: cell-based, murine; details: PLM cultures, relative to control
Description: (§1) Primary limb mesenchymal (PLM) cultures were established from CD-1 murine embryonic limbs (E11.5) as previously described (Hoffman et al., J. Cell 174:101-13 (2006); Weston et al., J. Cell Biol., 158:39-51 (2002)). Limb mesenchyme was dissociated by dispase treatment and a single cell suspension was obtained by filtration through a […] cell strainer (BD Biosciences). PLM cells were pelleted by centrifugation at 200×g and resuspended to produce a stock cell suspension at a concentration of 2.0×10^7 cells/ml. Cells were used for transfection (Example 2) or for establishment of cultures for alcian blue staining.
Stock plasmid DNAs were standardized to a concentration of 1 mg/ml. For co-transfections, a ratio of 3:1 gene of interest to reporter gene was used. Luciferase reporter genes consist of a firefly reporter gene, pGL3(4×48), and a Renilla (Renilla reniformis) luciferase reporter phRL-SV40 to normalize for transfection efficiency. Transfections were carried out using Effectene reagent (Qiagen). The pGL3(4×48) reporter contains four repeats of a Sox5/6/9 binding site. Reporter plasmids containing Sox5/6/9 binding sites (pGL3[4×48]) were previously described (Weston et al., J. Cell Biol., 158:39-51 (2002)).
This dose range is consistent with previous studies on butamben binding and inhibition of potassium channels. […]

[2] = system: primary limb mesenchymal (PLM) cultures; test: alcian blue staining of PLM cultures; format: cell-based, murine; details: PLM transfection assays and alcian blue staining experiments
Description: Primary limb mesenchymal (PLM) cultures were established from CD-1 murine embryonic limbs (E11.5) as previously described (Hoffman et al., J. Cell 174:101-13 (2006); Weston et al., J. Cell Biol., 158:39-51 (2002)). Limb mesenchyme was dissociated by dispase treatment and a single cell suspension was obtained by filtration through a […] cell strainer (BD Biosciences). PLM cells were pelleted by centrifugation at 200×g and resuspended to produce a stock cell suspension at a concentration of 2.0×10^7 cells/ml. Cells were used for transfection (Example 2) or for establishment of cultures for alcian blue staining. For the latter, 10 μl of PLM cells were spotted into the well of a 24-well plate, and allowed to adhere for 1 h. Culture medium consisting of 60% Ham's F12 nutrient mix/40% Dulbecco's modified Eagle's medium (DMEM) and supplemented with 10% FBS (Qualified, Invitrogen) was added to each well; this time was considered T=0. Cultures were maintained for a period of up to 4 days, and culture media was replaced on alternate days to minimize handling. For alcian blue staining, culture medium was aspirated and cells were washed once with PBS. Cultures were fixed in 95% ethanol at −20° C. overnight. Fixative was removed by aspiration and cells were sequentially washed once with PBS, followed by 0.2M HCl. Cells were stained overnight with a 1% alcian blue solution prepared in 0.2M HCl.

pGL3(4×48) reporter = pGL3(4×48) reporter in high-density murine limb bud-derived cultures, compounds alone or in combination; format: cell-based; details: BMP4 20 ng/ml, BAB 10 μM, 4310 100 nM; 24 h and 72 h after treatment; normalized to untreated controls
Description: High-density murine limb bud-derived cultures were established as previously described (Hoffman 2006). Media was replaced every two days. Cells were transfected on day 0 with pGL3(4×48) (reporter) and phRL-SV40 (to normalize transfection efficiency) plasmids using Effectene transfection reagent (Qiagen). Twenty-four hours after transfection, cells were treated with the following final concentrations of compounds, either individually or in combination: BMP4 (20 ng/ml), butamben (BAB) (10 μM), and the pan-RAR antagonist 4310 (100 nM). Lysates were collected at 24 h and 72 h after treatment. Luciferase activity was measured using the Dual-Luciferase® kit according to the manufacturer's instructions (Promega). Reporter activity was normalized to untreated controls (−) on the same day.

Mmp13 = Mmp13 mRNA in murine limb bud-derived high-density cultures, TaqMan real-time PCR; format: cell-based; details: BMP4 20 ng/ml, BAB 10 μM, 4310 100 nM; RNA at five and ten days; normalized to 5-day control
Description: Murine limb bud-derived high-density cultures were established as previously described (Hoffman 2006). Media was replaced every three days. After 24 hours of culture, compounds were added at the following final concentrations: BMP4 (20 ng/ml), BAB (10 μM), and 4310 (100 nM). After 72 hours of culture, ascorbic acid and beta-glycerol phosphate were added to the culture at final concentrations of 126 μM and 1 mM, respectively. RNA was isolated from cultures at five and ten days. Gene expression was assessed using real-time PCR with TaqMan® probe and primer sets (Applied Biosystems, Taqman Gene Expression Assay Mm00439491_m1). All gene expression levels were normalized to the 5-day control (set at 100%). Results are shown in FIG. 7 and are the average of two replicates.

Sox9 = Sox9 expression in PLM cultures by RT-qPCR; format: cell-based, murine; details: PLM cultures treated for 1 or 3 days, relative to control
Description: as §1
To follow the expression of transcripts for Kcnd2 and Sox9, quantitative real-time PCR was performed using the 7500 Fast Sequence Detection System (Applied Biosystems). The primer/probe set used for detection of Sox9 was as described in Weston et al., J. Cell Biol., 158:39-51 (2002). For detection of all other transcripts, TaqMan Gene Expression Assays (Applied Biosystems) were used. Total RNA was isolated from primary cultures, and an aliquot was reverse transcribed to cDNA using a High Capacity cDNA Archive kit (Applied Biosystems). Quantification was performed using ˜10 ng of total RNA and the expression of all genes relative to endogenous rRNA was determined using TaqMan Ribosomal Control Reagents (Applied Biosystems). […]

[3] = system: voltage-gated potassium channel Kv1 and 4 classes; details: Winkelman et al. 2005; Beekwilder et al. 2003; cited from earlier work
[4] = target: T1, Kv4.2 potassium channel encoded by Kcnd2 (Homo sapiens, UniProt Q9NZV8); details: Winkelman et al. 2005; cited from earlier work
T1 sequence (Q9NZV8 1-630): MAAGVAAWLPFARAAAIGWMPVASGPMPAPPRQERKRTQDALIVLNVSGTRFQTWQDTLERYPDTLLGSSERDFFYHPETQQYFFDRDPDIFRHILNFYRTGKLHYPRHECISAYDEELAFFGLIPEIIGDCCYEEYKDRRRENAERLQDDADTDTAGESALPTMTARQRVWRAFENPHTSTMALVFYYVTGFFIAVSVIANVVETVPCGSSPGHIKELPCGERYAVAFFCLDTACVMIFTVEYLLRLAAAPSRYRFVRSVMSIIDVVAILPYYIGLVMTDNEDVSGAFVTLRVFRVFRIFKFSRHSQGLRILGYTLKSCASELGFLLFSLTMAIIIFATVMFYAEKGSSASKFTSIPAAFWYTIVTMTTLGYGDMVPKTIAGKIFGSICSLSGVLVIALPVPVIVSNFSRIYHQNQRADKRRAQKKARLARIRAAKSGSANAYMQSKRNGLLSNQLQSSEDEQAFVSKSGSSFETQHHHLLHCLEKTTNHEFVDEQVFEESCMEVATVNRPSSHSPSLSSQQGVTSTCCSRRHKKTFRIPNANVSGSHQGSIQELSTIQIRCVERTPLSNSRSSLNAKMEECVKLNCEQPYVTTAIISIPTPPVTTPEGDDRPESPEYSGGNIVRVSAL

Row | Molecule | activity of chondrogenic responsive reporter gene pGL3(4×48) [1] | chondrogenic activity [2] | pGL3(4×48) reporter gene activity (pGL3(4×48) reporter) | Mmp13 expression (Mmp13) | Sox9 expression (Sox9) | block of voltage-gated potassium channel Kv1 and 4 classes [3] | block of Kv4.2 potassium channel [4]
1 | Nc1ccncc1 [4-AP, 4-aminopyridine] | significantly induces | – | – | – | – | – | –
2 | CCCCOC(=O)c1ccc(N)cc1 [butamben, butyl 4-aminobenzoate] | significantly increase | low micromolar concentrations of butamben stimulate chondrogenic activity | increased | markedly decreased | increased Sox9 expression | blocks | blocked
3 | B1 | – | – | increased | increased | – | – | –
